Experimental data published in US20110160196A1, “FACTOR XA INHIBITORS” (Millennium Pharmaceuticals, Inc., priority 2007, published 2011).

biological target: T1, human plasma protein factor Xa (Homo sapiens, UniProt P00742); assay: Factor Xa IC50 determination (cleavage of paranitroanilide substrate S-2765); format: biochemical; conditions: factor Xa 1 nM, S-2765 100 μM, Tris buffered saline pH 7.4, read at 405 nm
T1 construct: The human plasma protein factor Xa was purchased; purchased Haematologic Technologies (Essex Junction, Vt.); host or cells: human plasma
T1 sequence (P00742 235-488 limits assumed): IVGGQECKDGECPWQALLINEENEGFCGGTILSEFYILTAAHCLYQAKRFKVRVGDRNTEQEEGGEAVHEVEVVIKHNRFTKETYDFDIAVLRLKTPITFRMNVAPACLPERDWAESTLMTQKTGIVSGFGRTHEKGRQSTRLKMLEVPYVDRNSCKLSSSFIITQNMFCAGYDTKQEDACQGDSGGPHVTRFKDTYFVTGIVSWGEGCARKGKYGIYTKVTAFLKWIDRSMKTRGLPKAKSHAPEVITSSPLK
T1 sequence (P00742 41-179 partner limits assumed): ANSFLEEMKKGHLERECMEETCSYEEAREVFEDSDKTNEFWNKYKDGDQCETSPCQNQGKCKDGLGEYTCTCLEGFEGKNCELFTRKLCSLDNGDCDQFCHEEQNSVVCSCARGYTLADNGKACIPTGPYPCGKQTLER
From the text: This example illustrates methods for evaluating the compounds of the invention, along with results obtained for such assays. The in vitro and in vivo human Factor Xa activities of the inventive compounds can be determined by various procedures known in the art, such as a test for their ability to inhibit the activity of human plasma Factor Xa. […] The IC50 value is the concentration (in nM) of the compound required to provide 50% inhibition of human Factor Xa proteolytic activity.
An in vitro assay for detecting and measuring inhibition activity against Factor Xa is as follows:
The substrate S-2765 (Z-D-Arg-Gly-Arg-pNA.HCl) was obtained from Diapharma (West Chester, Ohio).
The human plasma protein factor Xa was purchased from Haematologic Technologies (Essex Junction, Vt.).
All assays, which are performed in 96-well microtiter plates, measure proteolytic activity of the enzyme (factor Xa) by following cleavage of a paranitroanilide peptide substrate. The assay buffer used for proteolytic assays was Tris buffered saline (20 mM Tris, 150 mM NaCl, 5 mM CaCl2, 0.1% Bovine serum albumin (BSA), 5% Dimethly Sulfoxide (DMSO) pH 7.4). In a 96-well microtiter plate, inhibitor was serially diluted to give a range of final concentrations from 0.01 nM to 10 μM. Duplicate sets of wells were assayed and control wells without inhibitor were included. Enzyme was added to each well, (factor Xa concentration=1 nM), the plate was shaken for 5 seconds and then incubated for 5 minutes at room temperature. S-2765 was added (100 μM final) and the plate was shaken for 5 seconds (final volume in each well was 200 μl). The degree of substrate hydrolysis was measured at 405 nm on a Thermomax plate reader (Molecular Devices, Sunnyvale, Calif.) for 2 minutes. The initial velocities of substrate cleavage (mOD/min), for each range of inhibitor concentrations, were fitted to a four parameter equation using Softmax data analysis software. The parameter C, derived from the resulting curve-fit, corresponded to the concentration for half maximal inhibition (IC50).

Structure (SMILES)	IC50 [nM]
NCCCOc1cc(-n2ccccc2=O)ccc1-n1cc(CNC(=O)c2ccc(Cl)s2)nn1 [Compound 68, N-((1-(2-(3-Aminopropoxy)-4-(2-oxopyridin-1(2H)-yl)phenyl)-1H-1,2,3-triazol-4-yl)methyl)-5-chlorothiophene-2-carboxamide]	≤ 100
O=C(NCc1cn(-c2ccc(-n3ccccc3=O)cc2OCCCO)nn1)c1ccc(Cl)s1 [Compound 74, 5-Chloro-N-((1-(2-(3-hydroxypropoxy)-4-(2-oxopyridin-1(2H)-yl)phenyl)-1H-1,2,3-triazol-4-yl)methyl)thiophene-2-carboxamide]	≤ 100
CN(CCO)c1cc(-n2ccccc2=O)ccc1-n1cc(CNC(=O)c2ccc(Cl)s2)nn1 [Compound 28, 5-Chloro-N-((1-(2-((2-hydroxyethyl)(methyl)amino)-4-(2-oxopyridin-1(2H)-yl)phenyl)-1H-1,2,3-triazol-4-yl)methyl)thiophene-2-carboxamide]	≤ 100
O=C(NCc1cn(-c2ccc(-n3ccccc3=O)cc2C(=O)NCCO)nn1)c1ccc(Cl)s1 [Compound 104, N-((1-(2-((2-Hydroxyethyl)carbamoyl)-4-(2-oxopyridin-1(2H)-yl)phenyl)-1H-1,2,3-triazol-4-yl)methyl)-5-chlorothiophene-2-carboxamide]	100 to 500
NC(=O)N1CCN(c2cc(-n3ccccc3=O)ccc2-n2cc(CNC(=O)c3ccc(Cl)s3)nn2)CC1 [Compound 15, 4-(2-(4-((2-Chlorothiophene-5-carboxamido)methyl)-1H-1,2,3-triazol-1-yl)-5-(2-oxopyridin-1(2H)-yl)phenyl)piperazine-1-carboxamide]	≤ 100
O=C(NCc1cn(-c2ccc(-n3ccccc3=O)cc2OCCO)nn1)c1ccc(Cl)s1 [Compound 75, 5-Chloro-N-((1-(2-(2-hydroxyethoxy)-4-(2-oxopyridin-1(2H)-yl)phenyl)-1H-1,2,3-triazol-4-yl)methyl)thiophene-2-carboxamide]	≤ 100
CS(=O)(=O)CCOc1cc(-n2ccccc2=O)ccc1-n1cc(CNC(=O)c2ccc(Cl)s2)nn1 [Compound 80, 5-Chloro-N-((1-(2-(2-(methylsulfonyl)ethoxy)-4-(2-oxopyridin-1(2H)-yl)phenyl)-1H-1,2,3-triazol-4-yl)methyl)thiophene-2-carboxamide]	≤ 100
O=C(NCc1cn(-c2ccc(-n3ccccc3=O)cc2OCCCN2CCOCC2)nn1)c1ccc(Cl)s1 [Compound 95, 5-Chloro-N-((1-(2-(3-morpholinopropoxy)-4-(2-oxopyridin-1(2H)-yl)phenyl)-1H-1,2,3-triazol-4-yl)methyl)thiophene-2-carboxamide]	≤ 100
O=C(NCc1cn(-c2ccc(-n3ccccc3=O)cc2NCCO)nn1)c1ccc(Cl)s1 [Compound 26, 5-Chloro-N-((1-(2-(2-hydroxyethylamino)-4-(2-oxopyridin-1(2H)-yl)phenyl)-1H-1,2,3-triazol-4-yl)methyl)thiophene-2-carboxamide]	≤ 100
O=C(NCc1cn(-c2ccc(-n3ccccc3=O)cc2OCCCN2CCCC2)nn1)c1ccc(Cl)s1 [Compound 93, 5-Chloro-N-((1-(4-(2-oxopyridin-1(2H)-yl)-2-(3-(pyrrolidin-1-yl)propoxy)phenyl)-1H-1,2,3-triazol-4-yl)methyl)thiophene-2-carboxamide]	≤ 100
O=C(NCc1cn(-c2ccc(-n3ccccc3=O)cc2N2CCC[C@@H](O)C2)nn1)c1ccc(Cl)s1 [Compound 22, 5-Chloro-N-((1-(2-((R)-3-hydroxypiperidin-1-yl)-4-(2-oxopyridin-1(2H)-yl)phenyl)-1H-1,2,3-triazol-4-yl)methyl)thiophene-2-carboxamide]	≤ 100
COc1cc(-n2ccccc2=O)ccc1-n1cc(CNC(=O)c2ccc(Cl)s2)nn1 [Compound 56, 5-Chloro-N-((1-(2-methoxy-4-(2-oxopyridin-1(2H)-yl)phenyl)-1H-1,2,3-triazol-4-yl)methyl)thiophene-2-carboxamide]	≤ 100

Results, then the molecule that gave them:

IC50 [nM]	Structure (SMILES)
≤ 100	O=C(NCc1cn(-c2ccc(-n3ccccc3=O)cc2OCCc2ccccn2)nn1)c1ccc(Cl)s1 [Compound 168, 5-Chloro-N-((1-(4-(2-oxopyridin-1(2H)-yl)-2-(2-(pyridin-2-yl)ethoxy)phenyl)-1H-1,2,3-triazol-4-yl)methyl)thiophene-2-carboxamide]
≤ 100	O=C(NCc1cn(-c2ccc(-n3ccccc3=O)cc2OCc2cscn2)nn1)c1ccc(Cl)s1 [Compound 171, 5-Chloro-N-((1-(4-(2-oxopyridin-1(2H)-yl)-2-(thiazol-4-ylmethoxy)phenyl)-1H-1,2,3-triazol-4-yl)methyl)thiophene-2-carboxamide]
≤ 100	O=C(NCc1cn(-c2ccc(-n3ccccc3=O)cc2-c2ccnc(Cl)c2)nn1)c1ccc(Cl)s1 [Compound 133, 5-Chloro-N-((1-(2-(2-chloropyridin-4-yl)-4-(2-oxopyridin-1(2H)-yl)phenyl)-1H-1,2,3-triazol-4-yl)methyl)thiophene-2-carboxamide]
100 to 500	NC(=O)CNC(=O)c1cc(-n2ccccc2=O)ccc1-n1cc(CNC(=O)c2ccc(Cl)s2)nn1 [Compound 108, N-((1-(2-((2-Amino-2-oxoethyl)carbamoyl)-4-(2-oxopyridin-1(2H)-yl)phenyl)-1H-1,2,3-triazol-4-yl)methyl)-5-chlorothiophene-2-carboxamide]
100 to 500	NC(=O)C1CCN(C(=O)c2cc(-n3ccccc3=O)ccc2-n2cc(CNC(=O)c3ccc(Cl)s3)nn2)CC1 [Compound 116, 1-(2-(4-((5-Chlorothiophene-2-carboxamido)methyl)-1H-1,2,3-triazol-1-yl)-5-(2-oxopyridin-1(2H)-yl)benzoyl)piperidine-4-carboxamide]
≤ 100	O=C(NCc1cn(-c2ccc(-n3ccccc3=O)cc2OCCc2cccnc2)nn1)c1ccc(Cl)s1 [Compound 174, 5-Chloro-N-((1-(4-(2-oxopyridin-1(2H)-yl)-2-(2-(pyridin-3-yl)ethoxy)phenyl)-1H-1,2,3-triazol-4-yl)methyl)thiophene-2-carboxamide]
≤ 100	O=C(NCc1cn(-c2ccc(-n3ccccc3=O)cc2OCCn2cccc2)nn1)c1ccc(Cl)s1 [Compound 180, N-((1-(2-(2-(1H-Pyrrol-1-yl)ethoxy)-4-(2-oxopyridin-1(2H)-yl)phenyl)-1H-1,2,3-triazol-4-yl)methyl)-5-chlorothiophene-2-carboxamide]
100 to 500	CN(C)CCN(C)C(=O)c1cc(-n2ccccc2=O)ccc1-n1cc(CNC(=O)c2ccc(Cl)s2)nn1 [Compound 111, 5-Chloro-N-((1-(2-((2-(dimethylamino)ethyl)(methyl)carbamoyl)-4-(2-oxopyridin-1(2H)-yl)phenyl)-1H-1,2,3-triazol-4-yl)methyl)thiophene-2-carboxamide]
≤ 100	O=C(NCc1cn(-c2ccc(-n3ccccc3=O)cc2CN2CCSCC2)nn1)c1ccc(Cl)s1 [Compound 162, 5-Chloro-N-((1-(4-(2-oxopyridin-1(2H)-yl)-2-(thiomorpholinomethyl)phenyl)-1H-1,2,3-triazol-4-yl)methyl)thiophene-2-carboxamide]
≤ 100	COc1cc(-c2cc(-n3ccccc3=O)ccc2-n2cc(CNC(=O)c3ccc(Cl)s3)nn2)ccn1 [Compound 138, 5-Chloro-N-((1-(2-(2-methoxypyridin-4-yl)-4-(2-oxopyridin-1(2H)-yl)phenyl)-1H-1,2,3-triazol-4-yl)methyl)thiophene-2-carboxamide]
